Experimental data reported in patent US20230172877A1, “METABOLITES RELEASED FROM APOPTOTIC CELLS ACT AS NOVEL TISSUE MESSENGERS” (University of Virginia Patent Foundation, priority 2020, published 2023).
Values belong to the compound of their own block, whether it stands above or below them. Peptide text beside a SMILES is read from it. * marks the point of attachment. Cbz = O=C(OCc1ccccc1)*; CH2F = FC*

What was measured:
[1] = test system: arthritis; settings: FBP alone, reference 26; cited from earlier work
[2] = molecular target: T1, Panx1 (Homo sapiens, UniProt Q96RD7); assay: Panx1-dependent metabolite release from apoptotic Jurkat T cells with Panx1 inhibitors; type: cell-based; settings: UV-induced apoptosis; spironolactone 50 µM, trovafloxacin 25 µM
T1 construct: host or cells: Jurkat E6.1 T cells (wild type), apoptotic
Protocol: Apoptosis induction. Wild type Jurkat E6.1 (ATCC) or dominant negative Pannexinl-expressing (Panxl-DN)^10 cells were resuspended in RPMI-1640 containing 1% BSA, 1% PSQ, and 10 mM HEPES and treated with 250 ng ml^-1 anti-Fas (clone CH11), 10 µM ABT-737, or exposed to 150 mJ cm^-2 ultraviolet C irradiation for 1-2 min (Stratalinker). Jurkat cells were incubated for 4 hours after apoptosis induction. For apoptosis induction in the presence of Panx1 inhibitors, Jurkat cells were treated with spironolactone (50 µM) or trovafloxacin (25 µM) in RPMI containing 1% BSA and 1% PSQ.
For untargeted metabolomics analysis through Metabolon, recovery standards were added to samples in order to monitor QC of the analysis. Samples were methanol precipitated under shaking for 2 minutes. […] Samples were analyzed under 4 different conditions; two for analysis by two separate reverse phase (RP)/UPLC-MS/MS methods with positive ion mode ESI, one for analysis by RP/UPLC-MS/MS with negative ion mode ESI, and one for analysis by HILIC/UPLC-MS/MS with negative ion mode ESI. […]
During the above analyses of EXAMPLE 1, it was noted that despite the many cellular metabolites detected in the pellet, only a subset is released; further, even within a known metabolic pathway, only some but not others were released. […]

[3] = test system: Jurkat cells, A549 lung epithelial cells, and HCT116 colonic epithelial cells; assay: Apoptosis-dependent release of conserved metabolites (analytical kits) with or without caspase inhibition; type: cell-based, human; settings: 50 uM zVAD pre-treatment for 10 min; UV, ABT-737, TRAIL
Protocol: A549 cells were treated with 10 µM ABT-737 or exposed 600mJ cm^-2 and incubated for twenty-four hours. HCT-116 cells were treated with 10 µM ABT-737 or 100 ng ml^-1 TRAIL and incubated for 24 hours. All cells were pre-treated for 10 min with 50 uM zVAD prior to apoptosis induction in indicated experiments. All cells were incubated at 37° C. with 5% CO2 for indicated times.
Metabolite detection. Spermidine detection was measured using a colorimetric kit (Cloud-Clone Corp.) via manufacturers’ protocol. Briefly, supernatants taken from cells under specified conditions were centrifuged at 1000 x g for twenty minutes. All reagents were brought to room temperature prior to use. […] 90 µl of substrate solution was added to each well and incubated for 10 minutes at 37° C. after which 50 µl of stop solution was added, the plate was mixed and immediately measure at 450 nm on a plate reader (Flex station 3). […]
ATP was measure using a luciferase-based kit (Promega) via manufactures’ protocol. […] Luminescence was immediately measure on the Flex Station 3. […]
Glycerol-3-phosphate and creatine were measured based on manufacturers’ protocols (Abcam). […] OD at 450 nm or fluorescence at Ex/Em 535/587 was measured for glycerol-3-phosphate and creatine, respectively.
To test other cell types and additional apoptotic modalities, we analyzed the release of four ‘conserved metabolites’ via analytical kits. […]

[4] = exogenous supplementation, reference 13; cited from earlier work

T1 sequence (Q96RD7 1-379 limits assumed): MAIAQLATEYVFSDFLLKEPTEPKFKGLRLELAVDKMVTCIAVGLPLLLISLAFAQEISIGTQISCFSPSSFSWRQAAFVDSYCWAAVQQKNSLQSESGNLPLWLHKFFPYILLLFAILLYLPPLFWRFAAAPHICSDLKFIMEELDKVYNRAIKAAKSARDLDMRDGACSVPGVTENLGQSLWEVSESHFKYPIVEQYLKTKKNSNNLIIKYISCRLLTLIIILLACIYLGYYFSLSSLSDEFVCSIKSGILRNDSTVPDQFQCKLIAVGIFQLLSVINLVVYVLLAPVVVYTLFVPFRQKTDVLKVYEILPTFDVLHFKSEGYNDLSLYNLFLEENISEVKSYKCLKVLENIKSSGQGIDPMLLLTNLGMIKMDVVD

Compound: O=C(COP(=O)(O)O)[C@@H](O)[C@H](O)[C@H](O)COP(=O)(O)O [fructose 1,6-bisphosphate (FBP), fructose 1,6-bisphosphate]
Role in arthritis [1]: can have ameliorative roles in arthritis

Apoptotic metabolites in Jurkat T cell supernatants when Panx1 was inhibited [2]: reduced
Compound: N[C@@H]1[C@H]2CN(c3nc4c(cc3F)c(=O)c(C(=O)O)cn4-c3ccc(F)cc3F)C[C@@H]12 [Trovan, trovafloxacin]

Compound: COC(=O)C[C@H](NC(=O)[C@H](C)NC(=O)[C@@H](NC(=O)OCc1ccccc1)C(C)C)C(=O)CF [zVAD, zVAD-FMK] (Cbz-Val-Ala-Asp(OMe)-CH2F)
Apoptosis-dependent release of the tested metabolites with caspase inhibition [3]: attenuation

Compound: NCCCCNCCCN [spermidine]
Effect on inflammation and longevity [4]: can reduce inflammation and improve longevity

Apoptotic metabolites in Jurkat T cell supernatants when Panx1 was inhibited [2]: reduced
Compound: CC(=O)S[C@@H]1CC2=CC(=O)CC[C@]2(C)[C@H]2CC[C@@]3(C)[C@@H](CC[C@@]34CCC(=O)O4)[C@H]12 [Spiro, spironolactone]
